For eleven compounds, IC50 results are on record in patent US10300051B2, “Cyclopropylamines as LSD1 inhibitors” (priority 2014, dated 2019).

One may read the pIC50 as −log10 of the IC50, conventionally taken in molar units. Read a low pIC50 as a high IC50.

The test deals with LSD-1 enzyme (Homo sapiens (Human), UniProt O60341). The format is biochemical. The conditions noted are these: 1 nM LSD-1 enzyme, 1 hour preincubation at 25° C., Biotin-labeled Histone H3 peptide substrate. The procedure:
Example A: LSD1 Histone Demethylase Biochemical Assay
LANCE LSD1/KDM1A demethylase assay—10 μL of 1 nM LSD-1 enzyme (ENZO BML-SE544-0050) in the assay buffer (50 mM Tris, pH 7.5, 0.01% Tween-20, 25 mM NaCl, 5 mM DTT) were preincubated for 1 hour at 25° C. with 0.8 μL compound/DMSO dotted in black 384 well polystyrene plates. […] Reactions were stopped by addition of 10 μL 1× LANCE Detection Buffer (PerkinElmer CR97-100) supplemented with 1.5 nM Eu-anti-unmodified H3K4 Antibody (PerkinElmer TRF0404), and 225 nM LANCE Ultra Streptavidin (PerkinElmer TRF102) along with 0.9 mM Tranylcypromine-HCl (Millipore 616431). After stopping the reactions plates were incubated for 30 minutes and read on a PHERAstar FS plate reader (BMG Labtech).

pIC50: −log10 of the molar value. Bounds are passed on as bounds.

Compound `CCN1CCC(CN[C@@H]2C[C@H]2c2ccccc2)(Cc2cccc(C(=O)O)c2)CC1` [Example 29, 3-{[1-ethyl-4-({[(1R,2S)-2-phenylcyclopropyl]amino}methyl)piperidin-4-yl]methyl}benzoic Acid] gave a negative logarithm of the IC50 (pIC50) of over 7.00.

As to `COC(=O)N1CCC(CC#N)(CN[C@@H]2C[C@H]2c2ccccc2)CC1` (relative stereo) [Example 2, Methyl 4-(cyanomethyl)-4-{[(trans-2-phenylcyclopropyl)amino]methyl}piperidine-1-carboxylate], the negative-log IC50 (pIC50) is over 7.00.

`CN(C)C(=O)N1CCC(CC#N)(CN[C@@H]2C[C@H]2c2ccccc2)CC1` (relative stereo) [Example 3, 4-(Cyanomethyl)-N,N-dimethyl-4-{[(trans-2-phenylcyclopropyl)amino]methyl}piperidine-1-carboxamide] showed a negative logarithm of the IC50 (pIC50) of over 7.00.

Regarding `COCC1(CN[C@@H]2C[C@H]2c2ccccc2)CCNCC1` [Example 21, (1R,2S)—N-{[4-(methoxymethyl)piperidin-4-yl]methyl}-2-phenylcyclopropanamine], the negative-log IC50 (pIC50) was over 7.00.

The compound `COCC1(CN[C@@H]2C[C@H]2c2ccccc2)CCN(C(=O)N2CCOCC2)CC1` [Example 49, (1R,2S)—N-{[4-(methoxymethyl)-1-(morpholin-4-ylcarbonyl)piperidin-4-yl]methyl}-2-phenylcyclopropanamine] showed a pIC50 of over 7.00.

Consider `N#CCC1(CN[C@@H]2C[C@H]2c2ccccc2)CCN(Cc2cccnc2)CC1` (relative stereo) [Example 7, [4-{[(trans-2-Phenylcyclopropyl)amino]methyl}-1-(pyridin-3-ylmethyl)piperidin-4-yl]acetonitrile], for which the negative-log IC50 (pIC50) was over 7.00.

For the compound `N#Cc1ccccc1OCC1(CN[C@@H]2C[C@H]2c2ccccc2)CCN(CCC(=O)O)CC1` [Example 43, 3-[4-[(2-cyanophenoxy)methyl]-4-({[(1R,2S)-2-phenylcyclopropyl]amino}methyl)piperidin-1-yl]propanoic Acid], the pIC50 was over 7.00.

As to `O=C(O)CCN1CCC(CN[C@@H]2C[C@H]2c2ccccc2)(COc2ccc(F)cn2)CC1` [Example 45, 3-[4-{[(5-fluoropyridin-2-yl)oxy]methyl}-4-({[(1R,2S)-2-phenylcyclopropyl]amino}methyl)piperidin-1-yl]propanoic Acid], the pIC50 is over 7.00.

`N#Cc1cccc(OCC2(CN[C@@H]3C[C@H]3c3ccccc3)CCN(CCC(=O)O)CC2)c1` [Example 47, 3-[4-[(3-cyanophenoxy)methyl]-4-({[(1R,2S)-2-phenylcyclopropyl]amino}methyl)piperidin-1-yl]propanoic Acid] showed a pIC50 of over 7.00.

`O=C(O)CCN1CCC(CN[C@@H]2C[C@H]2c2ccccc2)(COc2cccc(F)c2)CC1` [Example 38, 3-[4-[(3-fluorophenoxy)methyl]-4-({[(1R,2S)-2-phenylcyclopropyl]amino}methyl)piperidin-1-yl]propanoic Acid] showed a negative logarithm of the IC50 (pIC50) of over 7.00.

The compound `N#CCC1(CN[C@@H]2C[C@H]2c2ccccc2)CCNCC1` (relative stereo) [Example 6, (4-{[(trans-2-Phenylcyclopropyl)amino]methyl}piperidin-4-yl)acetonitrile] gave a pIC50 of over 7.00.
